Assay results taken from patent US20180344715A1, “WNT/BETA-CATENIN SIGNAL TRANSDUCTION INHIBITORS AND THEIR USE IN TREATMENT OR PREVENTION OF DISEASES AND CONDITIONS LINKED WITH SAID TRANSDUCTION” (BERGEN TEKNOLOGIOVERFORING AS, priority 2015, published 2018).

Key:
[1] = test system: SW480-7TGC cells; assay: Flow cytometry of SW480-7TGC cells with Hoechst33342; assay type: cell-based; details: 24 hours
Protocol: To establish stable cell lines containing Wnt reporters, lentiviral vector 7TGC or 7TC together with packaging plasmids pMD2.G and pCMVR8.74 were co-transfected into 293FT cells with lipofectamine 3000. After 16 hours, culture medium was replaced with medium for cells of interest. One day later, the culture medium was filtered through a 0.45 μm filter and incubated with cells for 24 hours. The transduced cells were assessed by fluorescence microscopy and fluorescence-activated cell sorting (FACS Aria, BD Biosciences).

[2] = biological target: T1, SHPRH (Homo sapiens, UniProt Q149N8); assay: SHPRH stability and ubiquitination in SW480 cells (cycloheximide, MG132); assay type: cell-based; details: SW480, 5 μM
T1 construct: endogenous in cells; host or cells: SW480
Excerpt: 2D-DIGE images of the DARTS samples. […] Location of β-catenin binding motifs of indicated genes (left) and agarose gel analysis of ChIP-PCR reactions with indicated antibodies (right). d. Western blots of the CoIP samples of SW480 cells using indicated antibodies. e. […] WT, wild type; FL, full length. g. Overexpression of SHPRH in SW480 cells increases the ubiquitination level of β-catenin. h. […] Summary of the mechanisms by which axitinib blocks Wnt/β-catenin signaling.
Culture cells were lysed in RIPA buffer (50 mM Tris-HCl, pH 7.4, 150 mM NaCl, 1% NP-40, 0.5% sodium deoxycholate, 0.1% SDS, 1 mM EDTA) containing freshly added protease inhibitors (Roche, 11836153001). Protein lysates were resolved in Novex 10% BisTris MiniGels (Life technologies, NP0303BOX) and transferred onto PVDF membranes with Pierce 1-Step Transfer Buffer (Thermo Fisher Scientific, 84731). […] Proteins were visualized and captured by a ChemiDOC XRS system and Quantity One software (Bio-Rad Laboratories).
Cells were harvested and re-suspended with 100 μl ice cold TBS (50 mM Tris-HCL pH 8.0, 150 mM NaCl) containing 2 μM N-Ethylmaleimide crystalline that was supplemented to all the following buffers. […] Following addition of 80 μl 2% SDS sample buffer containing 10 mM DTT (Sigma, D9779), the beads were boiled at 98° C. for 5 minutes and collected with Magnet, the supernatant was analyzed by Western blotting.

[3] = test system: SW480-7TGC cells; assay: Wnt ACD assay; assay type: cell-based; details: 5 μM; never found in control cells
Excerpt: Unequal Wnt signaling was considered when paired cells had intensity ratio higher than 2.

[4] = test system: Wnt target genes; assay: RT-PCR of Wnt target genes in 293FT cells; assay type: cell-based, human; details: 24 hours
Excerpt: Reverse transcription (RT) and real-time quantitative PCR (qPCR) were done as previously described (Ke, X. S. et al., 2011, Exp Cell Res 317, 234-247). For qPCR using TagMan Universal PCR Master Mix (Life technologies, 4304437), TagMan assays used for human AXIN2 (Hs00610344_m1), LEF1 (Hs01547250_m1), BMP4 (Hs03676628_s1), CTNNB1 (Hs01076483_m1), VEGFR1 (Hs01052961_m1), MED23 (Hs00606608_m1), SHPRH (Hs00542737_m1) and ACTB1 (Hs99999903_m1) were obtained from Life technologies. For RT-PCR using RT^2 SYBR Green/ROX PCR Master Mix (QIAGEN, 330520), primer oligos were made by Eurogentec (Liege, Belgium).

[5] = test system: transgenic zebrafish; assay: Tailfin regeneration assay in adult TCF-GFP transgenic zebrafish; details: 5 μM

T1 sequence (Q149N8 whole entry): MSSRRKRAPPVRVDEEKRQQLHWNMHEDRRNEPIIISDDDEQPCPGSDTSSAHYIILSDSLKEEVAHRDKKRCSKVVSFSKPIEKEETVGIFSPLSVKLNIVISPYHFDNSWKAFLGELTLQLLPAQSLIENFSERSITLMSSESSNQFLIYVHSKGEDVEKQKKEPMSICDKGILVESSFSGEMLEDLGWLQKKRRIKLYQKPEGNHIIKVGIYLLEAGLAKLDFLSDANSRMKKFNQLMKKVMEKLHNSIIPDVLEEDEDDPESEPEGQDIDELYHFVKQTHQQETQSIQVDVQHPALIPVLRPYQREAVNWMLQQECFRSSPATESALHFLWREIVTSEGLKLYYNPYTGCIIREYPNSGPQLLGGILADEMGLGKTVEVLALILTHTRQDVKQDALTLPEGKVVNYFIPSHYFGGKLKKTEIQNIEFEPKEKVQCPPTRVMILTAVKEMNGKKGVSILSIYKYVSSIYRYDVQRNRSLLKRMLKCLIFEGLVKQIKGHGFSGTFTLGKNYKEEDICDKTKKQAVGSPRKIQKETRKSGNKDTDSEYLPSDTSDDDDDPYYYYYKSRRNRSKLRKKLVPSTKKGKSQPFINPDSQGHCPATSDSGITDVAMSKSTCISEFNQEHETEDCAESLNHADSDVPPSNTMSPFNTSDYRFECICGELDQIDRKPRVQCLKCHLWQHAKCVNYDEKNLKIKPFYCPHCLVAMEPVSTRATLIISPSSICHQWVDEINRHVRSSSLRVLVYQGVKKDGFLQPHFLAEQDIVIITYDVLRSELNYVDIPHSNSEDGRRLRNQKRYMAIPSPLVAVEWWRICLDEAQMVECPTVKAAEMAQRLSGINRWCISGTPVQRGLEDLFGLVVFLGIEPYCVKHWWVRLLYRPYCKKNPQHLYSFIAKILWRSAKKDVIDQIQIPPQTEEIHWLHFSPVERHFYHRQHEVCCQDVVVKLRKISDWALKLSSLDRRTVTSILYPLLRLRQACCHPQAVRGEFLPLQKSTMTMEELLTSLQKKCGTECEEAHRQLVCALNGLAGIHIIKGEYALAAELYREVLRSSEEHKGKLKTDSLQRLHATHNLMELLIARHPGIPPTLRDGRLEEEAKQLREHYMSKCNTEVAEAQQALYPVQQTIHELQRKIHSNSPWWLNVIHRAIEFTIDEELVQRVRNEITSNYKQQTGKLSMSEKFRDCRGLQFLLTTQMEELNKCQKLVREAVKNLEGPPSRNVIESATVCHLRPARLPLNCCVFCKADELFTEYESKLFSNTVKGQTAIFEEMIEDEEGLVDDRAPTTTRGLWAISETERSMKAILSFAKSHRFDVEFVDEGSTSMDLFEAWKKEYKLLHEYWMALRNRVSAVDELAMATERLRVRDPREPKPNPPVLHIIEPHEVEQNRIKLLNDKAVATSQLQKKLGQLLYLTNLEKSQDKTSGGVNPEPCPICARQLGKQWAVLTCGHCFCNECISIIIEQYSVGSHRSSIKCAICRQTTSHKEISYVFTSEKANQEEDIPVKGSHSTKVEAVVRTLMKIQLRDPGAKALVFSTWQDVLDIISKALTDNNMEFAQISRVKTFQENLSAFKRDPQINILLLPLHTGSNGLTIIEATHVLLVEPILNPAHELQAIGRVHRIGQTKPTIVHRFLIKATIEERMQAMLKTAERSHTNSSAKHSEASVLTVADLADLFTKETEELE

## CNC(=O)c1ccccc1Sc1ccc2c(/C=C/c3ccccn3)n[nH]c2c1 [axitinib, N-Methyl-2-[[3-[(E)-2-pyridin-2-ylethenyl]-1H-indazol-6-yl]sulfanyl]benzamide]
[1]
  TCF-GFP^low cells: increased
[1]; Hoechst33342
  apoptosis in TCF-GFP^low cells: induced apoptosis
[2]; 6 hours, with cycloheximide
  stability of SHPRH: increased
[2]; MG132, 6 hours
  ubiquitination level of SHPRH: decreased
[3]
  paired cells with unequal TCF-GFP expression (Wnt ACD): up to 10%
[4]
  mRNA levels of Wnt target genes: decreases
[5]; 6 consecutive days
  tailfin regrowth and TCF-GFP activation: completely inhibited
[5]; 6 days
  intestine: crypt-villus architecture and incorporation of BrdU: no significant change
